Data from paper PMC12586182 (Frontiers in Oncology, 2025).

Key:
Assay in all cases: Kinase panel profiling at 1 µmol/L (mobility shift assay, Carna)
Format in all cases: biochemical
Conditions in all cases: 1 µmol/L of BTK inhibitor
JNK1 = molecular target: T1, JNK1 (Homo sapiens, UniProt P45983)
T1 construct: purchased Carna Biosciences

MUSK = molecular target: T2, MUSK (Homo sapiens, UniProt O15146)
T2 construct: purchased Carna Biosciences
T2 sequence (O15146 24-869): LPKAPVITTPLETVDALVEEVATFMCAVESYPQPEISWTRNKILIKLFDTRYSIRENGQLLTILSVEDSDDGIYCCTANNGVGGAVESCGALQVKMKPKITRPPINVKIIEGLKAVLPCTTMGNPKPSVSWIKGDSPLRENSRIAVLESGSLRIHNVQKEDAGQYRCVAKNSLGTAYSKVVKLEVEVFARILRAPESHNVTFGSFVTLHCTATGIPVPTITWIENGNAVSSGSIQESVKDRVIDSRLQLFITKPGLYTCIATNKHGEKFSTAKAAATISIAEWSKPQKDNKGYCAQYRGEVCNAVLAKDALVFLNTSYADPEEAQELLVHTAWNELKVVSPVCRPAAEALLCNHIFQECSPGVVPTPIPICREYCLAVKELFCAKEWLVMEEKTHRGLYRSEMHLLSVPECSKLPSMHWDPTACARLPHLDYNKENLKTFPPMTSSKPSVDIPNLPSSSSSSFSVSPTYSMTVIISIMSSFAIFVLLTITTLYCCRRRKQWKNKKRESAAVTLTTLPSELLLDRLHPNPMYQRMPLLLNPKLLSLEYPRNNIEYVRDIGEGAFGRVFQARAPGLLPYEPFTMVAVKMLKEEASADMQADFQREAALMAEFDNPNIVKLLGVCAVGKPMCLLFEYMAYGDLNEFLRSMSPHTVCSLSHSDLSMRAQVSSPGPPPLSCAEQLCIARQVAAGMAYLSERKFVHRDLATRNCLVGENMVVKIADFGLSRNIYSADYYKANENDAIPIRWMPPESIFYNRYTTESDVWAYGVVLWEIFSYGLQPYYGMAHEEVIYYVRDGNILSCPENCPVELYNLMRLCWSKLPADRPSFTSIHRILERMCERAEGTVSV

CDK6/CycD3 = molecular target: T3, CDK6/CycD3 (Homo sapiens, UniProt Q00534)
T3 construct: purchased Carna Biosciences

AKT3 = molecular target: T4, AKT3 (Homo sapiens, UniProt Q9Y243)
T4 construct: purchased Carna Biosciences

p38β = molecular target: T5, p38β (Homo sapiens, UniProt Q15759)
T5 construct: purchased Carna Biosciences

p38α = molecular target: T6, p38α (Homo sapiens, UniProt Q16539)
T6 construct: purchased Carna Biosciences

CHK1 = molecular target: T7, CHK1 (Homo sapiens, UniProt O14757)
T7 construct: purchased Carna Biosciences
T7 sequence (O14757 1-476): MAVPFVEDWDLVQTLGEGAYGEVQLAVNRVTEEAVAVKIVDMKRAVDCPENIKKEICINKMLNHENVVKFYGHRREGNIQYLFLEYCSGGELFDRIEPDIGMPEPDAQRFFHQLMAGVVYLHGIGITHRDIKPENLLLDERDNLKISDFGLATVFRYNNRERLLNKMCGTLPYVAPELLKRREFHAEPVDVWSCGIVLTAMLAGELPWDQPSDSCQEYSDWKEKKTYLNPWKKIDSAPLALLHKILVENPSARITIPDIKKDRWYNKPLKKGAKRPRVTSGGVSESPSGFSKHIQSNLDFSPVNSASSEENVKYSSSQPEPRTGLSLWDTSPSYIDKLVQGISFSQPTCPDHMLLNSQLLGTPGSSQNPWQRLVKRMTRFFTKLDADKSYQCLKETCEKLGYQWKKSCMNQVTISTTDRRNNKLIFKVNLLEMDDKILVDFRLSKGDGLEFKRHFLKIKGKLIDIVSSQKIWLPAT

ACK = molecular target: T8, ACK (Homo sapiens, UniProt Q07912)
T8 construct: purchased Carna Biosciences

DDR2 = molecular target: T9, DDR2 (Homo sapiens, UniProt Q16832)
T9 construct: purchased Carna Biosciences
T9 sequence (Q16832 22-855): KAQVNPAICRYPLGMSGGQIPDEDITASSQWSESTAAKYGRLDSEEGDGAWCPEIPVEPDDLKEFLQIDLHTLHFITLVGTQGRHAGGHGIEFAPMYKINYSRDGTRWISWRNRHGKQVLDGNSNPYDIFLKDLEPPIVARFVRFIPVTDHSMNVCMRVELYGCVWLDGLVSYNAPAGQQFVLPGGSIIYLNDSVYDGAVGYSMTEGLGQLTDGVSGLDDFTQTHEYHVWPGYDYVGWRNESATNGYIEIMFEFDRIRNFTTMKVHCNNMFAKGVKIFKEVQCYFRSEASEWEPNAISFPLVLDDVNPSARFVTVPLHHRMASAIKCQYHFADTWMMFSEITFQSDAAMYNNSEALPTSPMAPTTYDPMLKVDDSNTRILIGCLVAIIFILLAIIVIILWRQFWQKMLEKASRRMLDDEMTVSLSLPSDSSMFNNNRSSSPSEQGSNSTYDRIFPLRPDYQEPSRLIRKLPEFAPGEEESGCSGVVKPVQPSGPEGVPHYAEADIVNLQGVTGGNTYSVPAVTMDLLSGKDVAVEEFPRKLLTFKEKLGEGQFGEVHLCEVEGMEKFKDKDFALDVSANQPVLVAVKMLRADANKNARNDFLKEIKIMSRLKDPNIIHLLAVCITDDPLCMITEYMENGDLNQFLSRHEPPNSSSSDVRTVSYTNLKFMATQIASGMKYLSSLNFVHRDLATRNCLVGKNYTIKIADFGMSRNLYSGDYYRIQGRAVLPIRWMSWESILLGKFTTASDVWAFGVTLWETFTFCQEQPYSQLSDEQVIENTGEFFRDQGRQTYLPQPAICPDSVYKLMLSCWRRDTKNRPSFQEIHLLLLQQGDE

ROCK2 = molecular target: T10, ROCK2 (Homo sapiens, UniProt O75116)
T10 construct: purchased Carna Biosciences
T10 sequence (O75116 whole entry): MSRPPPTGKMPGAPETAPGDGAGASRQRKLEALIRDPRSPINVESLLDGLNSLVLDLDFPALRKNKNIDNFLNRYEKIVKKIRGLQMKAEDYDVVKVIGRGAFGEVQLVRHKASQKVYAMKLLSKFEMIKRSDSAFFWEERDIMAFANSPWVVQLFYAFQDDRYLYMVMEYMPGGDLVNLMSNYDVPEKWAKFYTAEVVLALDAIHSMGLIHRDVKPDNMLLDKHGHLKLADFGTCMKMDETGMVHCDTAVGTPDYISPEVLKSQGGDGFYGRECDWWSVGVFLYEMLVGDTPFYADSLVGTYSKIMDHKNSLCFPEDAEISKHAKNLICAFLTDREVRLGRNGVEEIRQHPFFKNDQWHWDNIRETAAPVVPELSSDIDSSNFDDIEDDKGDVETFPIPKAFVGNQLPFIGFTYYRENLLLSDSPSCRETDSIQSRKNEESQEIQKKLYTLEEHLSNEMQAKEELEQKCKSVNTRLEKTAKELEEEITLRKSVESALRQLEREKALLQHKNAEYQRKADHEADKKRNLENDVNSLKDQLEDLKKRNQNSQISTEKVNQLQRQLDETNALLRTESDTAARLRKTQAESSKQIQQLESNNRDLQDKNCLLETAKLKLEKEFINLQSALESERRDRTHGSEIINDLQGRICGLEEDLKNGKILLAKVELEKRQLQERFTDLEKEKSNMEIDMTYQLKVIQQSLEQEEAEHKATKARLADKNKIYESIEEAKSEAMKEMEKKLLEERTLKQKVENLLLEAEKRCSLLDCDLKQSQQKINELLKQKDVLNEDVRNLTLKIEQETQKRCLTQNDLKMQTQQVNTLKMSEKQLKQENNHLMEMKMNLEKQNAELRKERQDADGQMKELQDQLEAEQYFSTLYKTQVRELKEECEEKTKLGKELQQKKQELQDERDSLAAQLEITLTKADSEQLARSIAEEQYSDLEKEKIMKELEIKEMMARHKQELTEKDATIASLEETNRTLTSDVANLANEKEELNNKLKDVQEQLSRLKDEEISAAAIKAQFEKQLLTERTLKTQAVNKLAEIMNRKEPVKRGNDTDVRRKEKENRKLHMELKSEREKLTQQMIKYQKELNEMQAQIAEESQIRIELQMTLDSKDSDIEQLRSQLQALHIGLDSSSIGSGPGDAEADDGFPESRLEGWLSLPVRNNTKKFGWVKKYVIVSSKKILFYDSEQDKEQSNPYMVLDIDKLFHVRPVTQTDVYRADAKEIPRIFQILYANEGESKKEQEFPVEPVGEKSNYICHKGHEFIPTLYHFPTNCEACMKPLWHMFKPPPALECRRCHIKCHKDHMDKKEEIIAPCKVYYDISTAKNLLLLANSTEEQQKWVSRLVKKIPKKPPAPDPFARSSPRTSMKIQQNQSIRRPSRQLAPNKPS

T5 sequence (Q15759 whole entry): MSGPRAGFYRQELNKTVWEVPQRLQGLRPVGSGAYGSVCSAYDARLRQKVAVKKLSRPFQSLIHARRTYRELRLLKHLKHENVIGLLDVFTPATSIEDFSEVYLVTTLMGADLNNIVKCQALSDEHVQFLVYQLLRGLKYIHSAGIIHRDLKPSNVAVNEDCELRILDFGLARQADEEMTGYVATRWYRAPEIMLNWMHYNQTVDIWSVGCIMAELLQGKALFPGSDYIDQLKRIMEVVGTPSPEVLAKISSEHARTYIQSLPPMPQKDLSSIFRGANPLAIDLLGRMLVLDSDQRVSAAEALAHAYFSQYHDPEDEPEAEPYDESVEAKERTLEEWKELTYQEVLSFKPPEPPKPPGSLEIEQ
T6 sequence (Q16539 whole entry): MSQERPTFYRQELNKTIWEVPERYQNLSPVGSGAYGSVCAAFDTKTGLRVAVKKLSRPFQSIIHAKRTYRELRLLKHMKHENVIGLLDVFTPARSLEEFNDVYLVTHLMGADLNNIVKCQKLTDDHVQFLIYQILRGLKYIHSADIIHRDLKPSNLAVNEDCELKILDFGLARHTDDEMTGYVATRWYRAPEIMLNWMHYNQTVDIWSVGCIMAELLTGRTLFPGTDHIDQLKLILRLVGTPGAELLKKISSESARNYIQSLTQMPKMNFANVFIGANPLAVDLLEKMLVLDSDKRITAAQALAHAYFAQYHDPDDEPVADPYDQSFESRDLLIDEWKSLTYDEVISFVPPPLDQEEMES
T1 sequence (P45983 whole entry): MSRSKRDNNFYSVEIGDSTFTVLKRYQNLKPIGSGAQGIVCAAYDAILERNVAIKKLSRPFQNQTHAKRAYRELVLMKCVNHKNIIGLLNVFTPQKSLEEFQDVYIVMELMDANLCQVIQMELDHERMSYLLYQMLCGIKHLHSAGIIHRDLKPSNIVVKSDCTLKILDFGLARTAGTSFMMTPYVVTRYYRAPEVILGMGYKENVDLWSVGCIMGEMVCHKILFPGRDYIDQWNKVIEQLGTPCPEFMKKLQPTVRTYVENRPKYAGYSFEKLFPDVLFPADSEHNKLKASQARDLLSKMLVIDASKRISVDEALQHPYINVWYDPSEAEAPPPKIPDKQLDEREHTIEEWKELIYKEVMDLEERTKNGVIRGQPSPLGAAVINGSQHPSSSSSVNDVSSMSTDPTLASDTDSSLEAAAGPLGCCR
T8 sequence (Q07912 whole entry): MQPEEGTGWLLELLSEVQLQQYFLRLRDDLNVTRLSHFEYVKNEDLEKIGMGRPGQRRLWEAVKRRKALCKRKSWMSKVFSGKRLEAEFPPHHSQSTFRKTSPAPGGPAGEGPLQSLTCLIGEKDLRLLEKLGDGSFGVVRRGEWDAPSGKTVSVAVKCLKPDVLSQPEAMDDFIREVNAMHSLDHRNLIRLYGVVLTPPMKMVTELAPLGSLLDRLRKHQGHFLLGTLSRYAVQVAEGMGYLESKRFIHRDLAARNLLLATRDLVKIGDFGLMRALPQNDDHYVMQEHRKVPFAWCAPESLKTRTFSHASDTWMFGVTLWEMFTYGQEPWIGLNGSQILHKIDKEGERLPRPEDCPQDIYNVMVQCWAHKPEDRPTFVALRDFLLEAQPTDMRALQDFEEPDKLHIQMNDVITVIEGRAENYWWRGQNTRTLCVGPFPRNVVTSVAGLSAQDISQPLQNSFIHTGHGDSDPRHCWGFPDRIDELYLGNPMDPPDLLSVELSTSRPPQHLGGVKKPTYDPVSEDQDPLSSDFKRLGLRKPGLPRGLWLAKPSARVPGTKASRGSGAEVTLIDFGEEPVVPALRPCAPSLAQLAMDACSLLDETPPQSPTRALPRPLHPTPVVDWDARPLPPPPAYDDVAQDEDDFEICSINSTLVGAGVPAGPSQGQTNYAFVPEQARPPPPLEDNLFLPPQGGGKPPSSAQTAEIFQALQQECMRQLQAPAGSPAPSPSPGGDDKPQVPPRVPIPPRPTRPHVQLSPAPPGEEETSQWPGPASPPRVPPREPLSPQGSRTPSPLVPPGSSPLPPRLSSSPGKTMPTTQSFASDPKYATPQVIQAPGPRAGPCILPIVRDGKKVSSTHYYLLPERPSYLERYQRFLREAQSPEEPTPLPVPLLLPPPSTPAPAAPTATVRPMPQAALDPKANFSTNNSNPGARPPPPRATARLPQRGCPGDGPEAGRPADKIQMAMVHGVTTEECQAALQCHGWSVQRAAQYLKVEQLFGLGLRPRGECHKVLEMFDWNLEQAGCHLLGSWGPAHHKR
T4 sequence (Q9Y243 whole entry): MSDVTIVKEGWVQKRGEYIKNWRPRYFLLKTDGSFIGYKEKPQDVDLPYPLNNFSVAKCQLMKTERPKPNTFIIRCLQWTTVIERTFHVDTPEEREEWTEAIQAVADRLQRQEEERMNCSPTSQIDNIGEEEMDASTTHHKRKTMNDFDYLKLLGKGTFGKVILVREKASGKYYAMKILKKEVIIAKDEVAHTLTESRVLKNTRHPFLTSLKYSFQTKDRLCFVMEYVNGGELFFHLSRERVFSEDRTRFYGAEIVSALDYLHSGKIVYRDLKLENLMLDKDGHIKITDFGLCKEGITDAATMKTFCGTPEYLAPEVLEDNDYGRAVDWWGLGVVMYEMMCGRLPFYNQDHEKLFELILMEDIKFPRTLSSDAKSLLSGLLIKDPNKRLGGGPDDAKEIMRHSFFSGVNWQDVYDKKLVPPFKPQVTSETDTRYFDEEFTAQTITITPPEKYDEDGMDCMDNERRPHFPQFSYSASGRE
T3 sequence (Q00534 whole entry): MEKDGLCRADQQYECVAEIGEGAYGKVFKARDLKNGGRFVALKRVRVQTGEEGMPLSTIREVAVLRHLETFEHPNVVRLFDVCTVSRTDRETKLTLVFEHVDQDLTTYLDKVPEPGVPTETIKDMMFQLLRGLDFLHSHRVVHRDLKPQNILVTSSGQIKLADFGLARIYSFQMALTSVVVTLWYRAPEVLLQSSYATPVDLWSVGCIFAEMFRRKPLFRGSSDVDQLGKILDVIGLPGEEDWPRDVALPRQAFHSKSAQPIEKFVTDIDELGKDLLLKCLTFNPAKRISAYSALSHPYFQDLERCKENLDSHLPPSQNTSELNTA
T3 sequence (P30281 whole entry partner): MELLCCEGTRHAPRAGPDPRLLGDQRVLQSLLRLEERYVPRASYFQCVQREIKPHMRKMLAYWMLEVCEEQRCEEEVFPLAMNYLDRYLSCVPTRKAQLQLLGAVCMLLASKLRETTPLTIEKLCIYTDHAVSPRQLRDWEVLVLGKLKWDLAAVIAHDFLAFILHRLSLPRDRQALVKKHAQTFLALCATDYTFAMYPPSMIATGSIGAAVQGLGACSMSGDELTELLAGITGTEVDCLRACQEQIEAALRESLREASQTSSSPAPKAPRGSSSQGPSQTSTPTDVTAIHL

Compound	Percentage inhibition of kinase enzyme activity (JNK1) [%]	Percentage inhibition of kinase enzyme activity (MUSK) [%]	Percentage inhibition of kinase enzyme activity (CDK6/CycD3) [%]	Percentage inhibition of kinase enzyme activity (AKT3) [%]	Percentage inhibition of kinase enzyme activity (p38β) [%]	Percentage inhibition of kinase enzyme activity (p38α) [%]	Percentage inhibition of kinase enzyme activity (CHK1) [%]	Percentage inhibition of kinase enzyme activity (ACK) [%]	Percentage inhibition of kinase enzyme activity (DDR2) [%]	Percentage inhibition of kinase enzyme activity (ROCK2) [%]
CC#CC(=O)N1CCC[C@H]1c1nc(-c2ccc(C(=O)Nc3ccccn3)cc2)c2c(N)nccn12 [acalabrutinib]	-0.88	-0.58	2.94	-4.92	-3.08	-0.75	-6.98	14.06	6.23	-2.29
C=CC(=O)N1CCC[C@@H](n2nc(-c3ccc(Oc4ccccc4)cc3)c3c(N)ncnc32)C1 [ibrutinib]	-2.33	1.76	4.32	-2.25	9.06	-2.71	10.13	72.74	17.34	3.74
O=C(c1ccc(Oc2ccccc2)cc1Cl)c1c[nH]c2ncnc(N[C@@H]3CC[C@@H](CO)OC3)c12 [nemtabrutinib]	-3.89	100.11	0.23	9.45	12.08	2.09	12.30	98.62	93.92	15.55
COc1ccc(F)cc1C(=O)NCc1ccc(-c2nn([C@@H](C)C(F)(F)F)c(N)c2C(N)=O)cc1 [pirtobrutinib]	-0.29	1.20	-5.97	-2.20	2.61	-2.18	8.67	13.05	9.58	1.18
C=CC(=O)N1CCC([C@@H]2CCNc3c(C(N)=O)c(-c4ccc(Oc5ccccc5)cc4)nn32)CC1 [zanubrutinib]	–	11.33	–	–	–	–	–	–	–	–
